Marks after values point to notes of the source that are not given here. Where a SMILES comes first, the peptide text is derived from it. [ ]: non-standard residue; d: D form. The star is where a group is joined. dPhe(4-NHCONH2) = NC(=O)Nc1ccc(C[C@@H](N)C(=O)O)cc1; Dihydroorotyl(S) = O=C1C[C@@H](C(=O)*)NC(=O)N1; dPhe(4-Cl) = N[C@H](Cc1ccc(Cl)cc1)C(=O)O; Phe(4-NH2) = Nc1ccc(C[C@H](N)C(=O)O)cc1; d2Nal = N[C@H](Cc1ccc2ccccc2c1)C(=O)O; Lys(iPr) = CC(C)NCCCC[C@H](N)C(=O)O; d3Pal = N[C@H](Cc1cccnc1)C(=O)O
Key:
Assay type in all cases: in vivo
[1] = tested on: female mice; experiment: Oestrus inhibition in female mice (daily vaginal smear); details: only subcutaneous injection once
Procedure: Twenty-four 6-week-old female mice were selected and divided into 4 groups, with 6 mice in each group. The female mice in the negative control group were subcutaneously injected with normal saline, the female mice in the Abarelix group were subcutaneously injected with a dosage of 2 mg/kg/day for 8 consecutive days, the female mice in the Cetrorelix group were subcutaneously injected with a dosage of 2 mg/kg/day for 8 consecutive days, and the female mice in the Degarelix group were subcutaneously injected once with a dose of 2 mg/kg. After administration, vaginal smear experiments were performed on female mice every day to detect the stage of the oestrus cycle of female mice in each group. […] Thirty-two 6-week-old female mice were selected and divided into 4 groups, with 8 mice in each group. The female mice in the negative control group were subcutaneously injected with normal saline, and the female mice in the three Degarelix groups were subcutaneously injected with different dosages (0.4 mg/kg, 0.6 mg/kg and 1.0 mg/kg) of Degarelix once. After administration, vaginal smear experiments were performed on female mice every day to detect the oestrous condition.

[2] = tested on: female mice; experiment: Oestrus synchronization of female mice (Degarelix, then PMSG and HCG); details: 1.0 mg/kg sc; 5 units PMSG ip on 14th day; 5 units HCG ip after 46 hours
Procedure: It was discovered from the oestrus inhibition experiments that a dose of 1.0 mg/kg can inhibit oestrus of female mice for at least 15 days. Six 6-week-old female mice were selected for further oestrus synchronization experiments. The specific method was as follows: the female mice were subcutaneously injected 1.0 mg/kg of Degarelix, and intraperitoneally injected 5 units of PMSG on the 14th day after administration, and intraperitoneally injected 5 units of HCG after 46 hours, and then the oestrus of the female mice was detected.

[3] = tested on: sowpigs; experiment: Oestrus inhibition in sowpigs (oestrus performance observed); details: intramuscular injection once
Procedure: Thirty healthy adult sowpigs were selected and divided into a control group and Degarelix experimental groups, with 6 sowpigs in each group. The four Degarelix experimental groups were intramuscularly injected with different doses of Degarelix, namely 10 μg/kg body weight, 20 μg/kg body weight, 40 μg/kg body weight and 160 μg/kg body weight, respectively. The control group was intramuscularly injected with normal saline, and the oestrus performance (e.g., vulva performance and static reaction) of the sowpigs was observed and recorded to determine whether the sowpigs were in oestrus, and the time to restore oestrus after administration was recorded.

[4] = tested on: gilts; experiment: Oestrus synchronization of gilts (inhibitor, then PMSG); details: 1,000 units PMSG im on 20th day
Procedure: Comparison of experiments of administering Degarelix and altrenogest in achieving oestrus synchronization in gilts was performed. Twelve healthy adult gilts were selected and divided into two groups, namely an altrenogest group and a Degarelix group, with 6 gilts in each group. Among them, gilts in the altrenogest group were fed 20 mg of altrenogest every day for 18 consecutive days, while gilts in the Degarelix group were intramuscularly injected with 15 μg/kg body weight of Degarelix only on the first day. Both groups of gilts were intramuscularly injected with 1,000 units of PMSG on the 20th day after the first administration, then test whether the gilts in different treatment groups can achieve the estrus synchronization.

[5] = tested on: male dogs; experiment: Inhibiting effect on male dogs (serum testosterone, scrotum circumference, sexual behavior); details: 1.5 mg/kg subcutaneous
Procedure: Adult healthy male dogs with normal reproductive capacity were selected and divided into an experimental group and a control group. Each group of the animals was treated with subcutaneous injections, male dogs in the control group were injected with normal saline, and male dogs in the experimental group were injected with 1.5 mg/kg body weight of Degarelix, the treated animals in each group were fed and observed in the same way. Blood was collected from the animals regularly to measure and record the concentration of testosterone in serum (blood was collected and detected before the injection of drugs, and 1 h, 2 h, 4 h, 6 h, 8 h, 24 h, 48 h, 72h, 120 h and 168 h after the injection of drugs, and after that, the blood was collected every 168 h (1 week) until the end of the experiment), and scrotum circumference of male animals was measured and recorded regularly, sexual behavior of the male animals was observed and recorded, and compared with that of male animals in the control group.

[6] = tested on: female dogs; experiment: Inhibiting effect on female dogs in proestrus; details: 1.5 mg/kg subcutaneous
Procedure: Healthy female dogs in proestrus (the proestrus period was less than 3 days) were selected and divided into an experimental group and a control group. Each group of the animals was treated with subcutaneous injections, the female dogs in control group were injected with normal saline, and the female dogs in experimental group were injected with 1.5 mg/kg body weight of Degarelix, each group of the treated animals was fed and observed in the same way to detect the oestrus of the female dogs.

[7] = gilts, 15 μg/kg im only on first day
[8] = gilts fed 20 mg every day for 18 days

Row | SMILES | Time of inhibiting oestrus ([1]; low dose 0.4 mg/kg) | Time of inhibiting oestrus ([1]; middle dose 0.6 mg/kg) | Days on which female mice were concentrated in oestrus [2] | Time to restore oestrus after administration ([3]; 10 μg/kg) | Time to restore oestrus after administration ([3]; 20 μg/kg) | Time to restore oestrus after administration ([3]; 40 μg/kg) | Days after PMSG injection on which gilts were in oestrus [4, 7] | Number of days over which gilts were concentrated in oestrus [4, 7] | Oestrus of all gilts after administration of exogenous hormones [4, 7] | Sexual behaviour [5] | Scrotal circumference ([5]; after a period of treatment) | Erection and semen collection ([5]; after treatment) | Testosterone concentration in serum ([5]; compared to control group) | Oestrus stage by vaginal smear [6] | Oestrus symptoms (vulvar redness and swelling, vaginal discharge of mucus) [6] | Days after PMSG injection on which gilts were in oestrus [4, 8] | Number of days over which gilts were concentrated in oestrus [4, 8] | Oestrus of all gilts after administration of exogenous hormones [4, 8]
1 | CC(=O)N[C@H](Cc1ccc2ccccc2c1)C(=O)N[C@H](Cc1ccc(Cl)cc1)C(=O)N[C@H](Cc1cccnc1)C(=O)N[C@@H](CO)C(=O)N[C@@H](Cc1ccc(NC(=O)[C@@H]2CC(=O)NC(=O)N2)cc1)C(=O)N[C@H](Cc1ccc(NC(N)=O)cc1)C(=O)N[C@@H](CC(C)C)C(=O)N[C@@H](CCCCNC(C)C)C(=O)N1CCC[C@H]1C(=O)N[C@H](C)C(N)=O [Degarelix] (Ac-[d2Nal][dPhe(4-Cl)][d3Pal]S[Phe(4-NH2)](Dihydroorotyl(S))[dPhe(4-NHCONH2)]L[Lys(iPr)]P[dA]-NH2) | 7.13 ± 2.09^b days | 8.50 ± 3.54^bc days | 17th and 18th days | 21.50 ± 2.45^b days | 38.83 ± 2.37^c days | 53.83 ± 3.16^d days | 3rd to the 5th day | 3 days | in oestrus within one week | significantly reduced | significantly reduced | abnormal erections and no semen could be collected | decreased significantly | quickly changed from proestrus to diestrus | gradually disappeared 3 days after the injection |  |  | 
2 | C=CC[C@]1(O)CC[C@H]2[C@@H]3CCC4=CC(=O)CCC4=C3C=C[C@@]21C [altrenogest] |  |  |  |  |  |  |  |  |  |  |  |  |  |  |  | 3rd day to the 6th day | 4 days | in oestrus within one week

Source: patent US20260174707A1, “USE OF GNRH ANTAGONIST IN REGULATION AND CONTROL OF ESTRUS OF MAMMAL” (priority 2022, published 2026)
